Data: patent publication US8470763B2, “Alpha-amino-N-substituted amides, pharmaceutical composition containing them and uses thereof” (Shanghai Institute of Materia Medica Chinese Academy of …, priority 2007, dated 2013)
Like-named read-outs stand apart in the source and are kept apart here.

Key:
[1] = test system: Hela uterine cervix cancer cells; experiment: MTT assay, Hela cells; assay type: cell-based; details: Homo sapiens, 72 h, 1000 cells per well
Description: (§1) The adhered MDA-MB-4355 cells in logarithmic growth phase, were digested by 0.05% trypsogen, counted and formulated into a cell suspension with a medium. After counted, the suspension was inoculated on a 96-well plate with 3000 cells and 100 μl medium per well. The inoculated 96-well plate was placed overnight in an incubator at 37 with 5% CO2 to allow the cells to adhere to the wall. On the next day, the administration of the drugs started. Before the administration, into some of the control wells, each was added 20 μl of the MTT solution (5 mg/ml) without removing the medium therein. After incubated for 3 h, the absorption at A550/690 was recorded as the initial cell concentration. For the drug wells, each was added into 100 μl of medium containing 2 μl of compound solution. For the control wells which use DMSO as background control, each was also added into 100 μl of medium containing 2 μl of DMSO. In addition, each experiment was carried out with adriamycin as the positive control. Subsequently, the 96-well plate was incubated in an incubator at 37 with 5% CO2 for 72 h. each compound was tested in triplicate wells (6 μl of compound solution was put into a sterilized eppendorf centrifuge tube, then 300 μl of medium was added and mixed well, and the mixture was distributed into 3 wells respectively), and at six concentrations which form a gradient. 3 days (72 h) later, 40 μl of MTT solution (5 mg/ml) was put into each well directly (without sucking off the medium therein), and the plate was incubated in the incubator for 3 h and then taken out. The liquid in each well was sucked off, and then 100 μl of DMSO was put into each well to dissolve the crystal completely with slight shake. The absorbance of the solution in each well was determined at 550/690 nm on an ELISA Reader as the cell density after treated with the compound. The growth inhibition of compound against breast cancer cells MDA-MB-435S was represented by the cell survival rate, and IC50 was determined from the profile of cell survival rate vs compound concentration. The calculating formula was as follows: cell survival rate=[(cells+compound)A550/690/(cells+compound vector DMSO)A550/690]×100%
(§2) MDA-MB-435S: human breast cancer cells; HCT116: colon cancer cells; A549: lung adenocarcinoma cells; Hela: uterine cervix cancer cells.
(§3) The tests were performed in the same manner as that of experimental example 1, except that for Hela cells, after counted, each well was seeded with 1000 cells and 100 μl of medium on a 96-well plate.

[2] = test system: lung adenocarcinoma cells A549; experiment: MTT assay, A549 cells; assay type: cell-based; details: Homo sapiens, 72 h
Description: as §1, §2, §3

[3] = test system: MDA-MB-435S human breast cancer cells; experiment: MTT assay, proliferation of MDA-MB-435S cells; assay type: cell-based; details: Homo sapiens, 72 h
Description: The experiments for evaluating the antineoplasmic activities of the compounds according to the present invention were carried out, and the compounds' antineoplasmic activities in vitro was evaluated by determining the inhibitory activities thereof against the proliferation of MDA-MB-435S human breast cancer cells.
The antineoplasmic activities were determined by using the MTT assay, which is based on the metabolic reduction of 3-(4,5-dimethylthylthiazol-2-yl)-2,5-diphenyl tetrazolium bromide (MTT). The dehydrogenases, which are related to NADP (niacinamide adenine dinucleotide phosphate, coenzyme) and present in mitochondrions of living cells, can reduce the yellow MTT to an insoluble, dark purple formazan. […] After the formazan is dissolved in DMSO, the optical density is determined on an ELISA Reader at the wavelength of 550/690 nm.
as §1

[4] = test system: colon cancer cells HCT116; experiment: MTT assay, HCT116 cells; assay type: cell-based; details: Homo sapiens, HCT-116, 72 h
Description: as §1, §2, §3

[5] = test system: SGC-7901 (Gastric Cancer); experiment: SRB assay, SGC-7901; assay type: cell-based; details: Homo sapiens, 72 h, read-out: IC50 (μM) (mean ± SD)
Description: (§4) Experimental method: The antineoplasmic activities in vitro of the compounds were determined by SRB assay. The detailed procedure was as follows. The cells in the logarithmic growth phase were inoculated on a 96-well microculture plate with a suitable density (100 μl/well), and allowed to attach overnight, followed by addition of the compound at different concentrations to be treated for 72 h. For each concentration, the test was carried out in triplicate wells, and included control wells containing the aqueous medium of normal saline and a blank well containing all medium without cells for zeroing. After cultured overnight, the cells were treated with the compound at different concentrations for 72 h. After the treatment, the culture medium was removed, and the cells were fixed with 10% (wt/vol) trichloroacetic acid (100 μL/well) at 4° C. for 1 h. The cells were then washed with distilled water for 5 times, and died at room temperature, followed by addition of a SRB solution (4 mg/mL, dissolved in 1% glacial acetic acid) at 100 μL/well. The cells were incubated and stained at room temperature for 15 min, then washed with 1% glacial acetic acid for 5 times to remove the uncombined SRB, and died at room temperature. 100 μL of 10 mM Tris solution was added in each well, and the Optical Density (OD) were measured at a wavelength of 560 nm on a VERSMax ELISA Reader (Molecule Devices). The growth inhibition of the compound against tumor cells was calculated according to the following equation: Growth inhibition (%)=(ODcontrol−ODtreated)/ODcontrol×100%.
(§5) IC50 (the concentration of the sample compound that is required for 50% inhibition of cell growth) was calculated by using the Logit method based on the measurement, and each test was repeated for 3 times to calculate the mean value and standard deviation.

[6] = test system: HO-8910 (Ovarian Cancer); experiment: SRB assay, HO-8910; assay type: cell-based; details: 72 h, read-out: IC50 (μM) (mean ± SD)
Description: as §4, §5

[7] = test system: HPAF-II (Pancreatic Cancer); experiment: SRB assay, HPAF-II; assay type: cell-based; details: Homo sapiens, 72 h, read-out: IC50 (μM) (mean ± SD)
Description: as §4, §5

[8] = test system: SMMC-7721 (Liver Cancer); experiment: SRB assay, SMMC-7721; assay type: cell-based; details: Homo sapiens, 72 h, read-out: IC50 (μM) (mean ± SD)
Description: as §4, §5

[9] = test system: DU145 (Prostatic Cancer); experiment: SRB assay, DU145; assay type: cell-based; details: Homo sapiens, DU-145, 72 h, read-out: IC50 (μM) (mean ± SD)
Description: as §4, §5

[10] = test system: 7404 (Liver Cancer); experiment: SRB assay, 7404; assay type: cell-based; details: 72 h, read-out: IC50 (μM) (mean ± SD)
Description: as §4, §5

[11] = test system: HCT-116 (Colon Cancer); experiment: SRB assay, HCT-116; assay type: cell-based; details: Homo sapiens, 72 h, read-out: IC50 (μM) (mean ± SD)
Description: as §4, §5

[12] = test system: MDA-MB-435 (Breast Cancer); experiment: SRB assay, MDA-MB-435; assay type: cell-based; details: Homo sapiens, 72 h, read-out: IC50 (μM) (mean ± SD)
Description: as §4, §5

[13] = test system: Zip177 (Liver Cancer); experiment: SRB assay, Zip177; assay type: cell-based; details: 72 h, read-out: IC50 (μM) (mean ± SD)
Description: as §4, §5

[14] = test system: A549 (Lung Cancer); experiment: SRB assay, A549; assay type: cell-based; details: Homo sapiens, 72 h, read-out: IC50 (μM) (mean ± SD)
Description: as §4, §5

[15] = test system: BEL-7402 (Liver Cancer); experiment: SRB assay, BEL-7402; assay type: cell-based; details: Homo sapiens, 72 h, read-out: IC50 (μM) (mean ± SD)
Description: as §4, §5

[16] = test system: HMEC (Others); experiment: SRB assay, HMEC; assay type: cell-based; details: Homo sapiens, 72 h, read-out: IC50 (μM) (mean ± SD)
Description: as §4, §5

[17] = test system: HepG2 (Liver Cancer); experiment: SRB assay, HepG2; assay type: cell-based; details: Homo sapiens, 72 h, read-out: IC50 (μM) (mean ± SD)
Description: as §4, §5

[18] = test system: heterograft of MDA-MB-4355 human breast cancer cells; details: background; cited from earlier work
[19] = test system: human tumor cells; details: background; cited from earlier work
[20] = clinical study entered 2001; cited from earlier work
[21] = background; cited from earlier work
[22] = note: MDA-MB-435S, read-out: IC50 (MDA-MB-435)
[23] = read-out: Cell Survival Rate IC50

Row | SMILES | IC50 [1] | IC50 [2] | IC50 [3, 22] | IC50 [3, 23] | IC50 [4] | IC50 [5] | IC50 [6] | IC50 [7] | IC50 [8] | IC50 [9] | IC50 [10] | IC50 [11] | IC50 [12] | IC50 [13] | IC50 [14] | IC50 [15] | IC50 [16] | IC50 [17] | further results
1 | CCOC(=O)CNC(=O)[C@H](C)NC(=O)[C@H](OC)[C@H](O)[C@@H](O)[C@H](O)/C=C/C(C)(C)C [Compound L418] | 572 ± 171 nM | 1550 ± 241 nM | 5170 ± 941 nM | 5170 nM | 1500 ± 215 nM |  |  |  |  |  |  |  |  |  |  |  |  |  | 
2 | CO[C@@H](C(=O)N[C@@H](C)C(=O)NCCOC1CCCCC1)[C@H](O)[C@@H](O)[C@H](O)/C=C/C(C)(C)C [Compound L458e] | 822 ± 175 nM | 594 ± 69 nM | 2830 ± 695 nM | 2190 nM | 1510 ± 283 nM |  |  |  |  |  |  |  |  |  |  |  |  |  | 
3 | CO[C@@H](C(=O)N[C@@H](C)C(=O)NCCOC(=O)C1CC=CCC1)[C@H](O)[C@@H](O)[C@H](O)/C=C/C(C)(C)C (stereo partly drawn) [Compound L484] | 188 ± 42 nM | 219 ± 30 nM | 541 ± 205 nM | 540 nM | 130 ± 15 nM |  |  |  |  |  |  |  |  |  |  |  |  |  | 
4 | CO[C@@H](C(=O)N[C@@H](C)C(=O)NCCOC(=O)C1CCCCC1)[C@H](O)[C@@H](O)[C@H](O)/C=C/C(C)(C)C [Compound L486d] | 165 ± 30 nM | 75 ± 14 nM | 284 ± 100 nM | 280 nM | 97 ± 13 nM |  |  |  |  |  |  |  |  |  |  |  |  |  | 
5 | CO[C@@H](C(=O)N[C@@H](C)C(=O)NCCOC(=O)CCc1ccccc1)[C@H](O)[C@@H](O)[C@H](O)/C=C/C(C)(C)C [Compound L508] | 158 ± 32 nM | 76 ± 8 nM | 398 ± 128 nM |  | 71 ± 7 nM | 2.21 ± 0.67 µM | > 20 µM | 1.57 ± 0.35 µM | 0.65 ± 0.26 µM | 0.29 ± 0.06 µM | > 20 µM | 0.35 ± 0.11 µM | 0.08 ± 0.01 µM | 0.4 ± 0.21 µM | 0.03 ± 0.01 µM | 0.33 ± 0.21 µM | 0.21 ± 0.02 µM | 0.56 ± 0.08 µM | 
6 | CCOC(=O)C(COC(=O)C1CCCCC1)NC(=O)[C@H](C)NC(=O)[C@H](OC)[C@H](O)[C@@H](O)[C@H](O)/C=C/C(C)(C)C (stereo partly drawn) [Compound L558a] | 24 ± 3 nM | 98 ± 18 nM | 201 ± 47 nM | 200 nM | 51 ± 5 nM | 1.97 ± 0.86 µM | > 20 µM | 2.01 ± 1.06 µM | 0.41 ± 0.15 µM | 0.14 ± 0.01 µM | > 20 µM | 0.58 ± 0.25 µM | 0.14 ± 0.13 µM | 0.26 ± 0.05 µM | 0.08 ± 0.02 µM | 0.28 ± 0.01 µM | 0.25 ± 0.14 µM | 1.11 ± 0.49 µM | 
7 | CO[C@@H](C(=O)N[C@H]1CC[C@@H](OC(=O)C2CCCCC2)CNC1=O)[C@H](O)[C@@H](O)[C@H](O)/C=C/C(C)(C)C [LAF389, reference compound] |  |  |  | 610 nM |  | 4.96 ± 0.4 µM | > 20 µM | 3.23 ± 2.13 µM | 1.25 ± 0.76 µM | 0.42 ± 0.21 µM | > 20 µM | 0.63 ± 0.18 µM | 0.29 ± 0.02 µM | 2.79 ± 0.15 µM | 0.05 ± 0.01 µM | 0.56 ± 0.4 µM | 0.83 ± 0.45 µM | 0.21 ± 0.09 µM | growth of heterograft in vivo [18]: comparable to Bengamide B; activities against human tumor cells in vitro [19]: comparable to Bengamide B; side effects in clinical study [20]: side effects such as taste disturbance, blurred vision; therapeutic effects in clinical study [20]: did not possess the foreseen therapeutic effects; solubility [21]: good solubility
8 | COc1cccc2c1C(=O)c1c(O)c3c(c(O)c1C2=O)C[C@@](O)(C(=O)CO)C[C@@H]3O[C@H]1C[C@H](N)[C@H](O)[C@H](C)O1 [adriamycin, reference compound] |  | 261 ± 65 nM | 510 ± 124 nM | 510 nM | 110 ± 13 nM |  |  |  |  |  |  |  |  |  |  |  |  |  | 
9 | CCCCCCCCCCCCCC(=O)O[C@H]1CC[C@H](NC(=O)[C@H](OC)[C@H](O)[C@@H](O)[C@H](O)/C=C/C(C)C)C(=O)N(C)C1 [bengamide B] |  |  |  |  |  |  |  |  |  |  |  |  |  |  |  |  |  |  | growth of heterograft in vivo [18]: remarkably depress the growth; activities against human tumor cells in vitro [19]: nanomolar level; solubility [21]: poor solubility
